Measured values taken from patent publication US20250154163A1, “Pyrimidinone-Containing 17-Beta-Hydroxysteroid Dehydrogenase Type 13 Inhibitors” (ENANTA PHARMACEUTICALS, INC., priority 2023, published 2025).

Columns and labels:
[1] = target: T1, Recombinant human 17β-HSD13 (Homo sapiens, UniProt Q7Z5P4); experiment: 17β-HSD13 rapid-fire mass spectrometry assay (RF/MS assay); type: biochemical; conditions: inhibition of 17β-HSD13, RF/MS assay; HSD17B13 80 nM, LTB4 10 μM, NAD+ 0.5 mM, RT 3 h
T1 construct: host or cells: Sf9 insect cells
T1 sequence (Q7Z5P4 20-300): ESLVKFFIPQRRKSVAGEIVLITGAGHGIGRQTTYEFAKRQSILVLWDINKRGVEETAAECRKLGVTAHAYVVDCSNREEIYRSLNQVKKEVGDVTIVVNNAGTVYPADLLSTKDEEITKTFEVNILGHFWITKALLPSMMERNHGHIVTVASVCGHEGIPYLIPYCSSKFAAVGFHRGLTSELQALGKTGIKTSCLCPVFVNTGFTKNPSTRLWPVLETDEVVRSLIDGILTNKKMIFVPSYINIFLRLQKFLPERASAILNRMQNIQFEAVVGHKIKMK
Method in brief: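 Purified recombinant human 17β-HSD13 (sf9-expressed, 80 nM) incubated with compound (0–100 μM), 10 μM LTB4 and 0.5 mM NAD+ in 20 mM Tris pH 7.5, 0.005% BSA, 0.01% Tween-20, 3 h at RT. 12-oxo-LTB4 formation quantified by RapidFire MS/MS; percent conversion normalized to controls, IC50 from variable-slope fit, duplicates.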

[2] = target: T2, human HSD17β13 (stable HEK293T cell line overexpressing human HSD17β13) (Homo sapiens, UniProt Q7Z5P4); experiment: HSD17β13 inhibitor cell-based screening assay (conversion of estradiol-d2 to estrone-d2 by RF-MS); conditions: conversion of estradiol-d2 to estrone-d2 after 24 hours
T2 construct: expressed in transfected cells
T2 sequence (Q7Z5P4 20-300): T1 sequence (Q7Z5P4 20-300)
Method in brief: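 Cellular IC50 is based on 24-h conversion of estradiol-d2 (5 μM final) to estrone-d2, measured by RF-MS in acetonitrile-precipitated supernatants. Assay uses human HSD17β13-overexpressing HEK293T cells (7.5E3/well, 1% charcoal/dextran FBS MEM), with compounds dosed as a 9-point 1:3 series to 10 μM final. ATPlite luminescence on overexpressing and parent lines measured viability.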

IC50 [1]: < 0.1 µM
IC50 [2]: < 0.1 µM
Compound: COc1ccc(-c2nc3sc4c(O)c(Cl)ccc4c3c(=O)n2Cc2ocnc2F)c(C2CC2)c1 [Example 220]
